In US20110014308A1, “NOVEL COMPOSITIONS AND USE THEREOF FOR THE TREATMENT, CO-TREATMENT OR PREVENTION OF INFLAMMATORY DISORDERS” (priority 2007, published 2011):

Key:
Assay type in all cases: cell-based
MMP-2 = MMP-2 gene expression (mRNA, RT-PCR) in IL1beta-treated normal human chondrocytes; settings: catabolic gene, % of IL1beta-treated cells (set at 100%), HT 1.925 mg/L, CS 500 mg/L, or both
Description: (§1) Catabolic events are controlled by the expression of genes, e.g. those genes that encode matrix metalloproteinases (MMPs) that eventually break down collagen. Of the MMPs, MMP-1 and MMP-3 have a major role in the degradation of the ECM and thus in cartilage erosion. The effect of HT in combination with chondroitin was tested on the expression of human aggrecan or collagen I in normal human chondrocytes (derived from knee) (CC-2550; Cambrex, respectively). OH-tyrosol (HT) was from Cayman Chemicals or from DSM; chondroitin sulfate (from shark) was purchased from Sigma. A control experiment without the compounds was done concomitantly to compare the expression of these genes. Normal human chondrocytes were cultured for 4 hours or 4 days with HT (at 12.5 micromol/L), chondroitin (at 500 mg/L) as well as with both. The level of mRNA was determined by RT-PCR (Richard et al. Mol. Nutr. Food Res. 49, 431-442, 2005) and expressed relative to the level observed in cells cultured without the substances. The given values indicate the level of gene expression (in % of unstimulated cells [set at 100%] for anabolic and anti-catabolic genes; in % of IL1beta-treated cells [set at 100%], for catabolic genes). […]

MMP-1 = MMP-1 gene expression (mRNA, RT-PCR) in IL1beta-treated normal human chondrocytes; settings: catabolic gene, % of IL1beta-treated cells (set at 100%), HT 1.925 mg/L, CS 500 mg/L, or both
Description: as §1

IL-1beta = IL-1beta gene expression (mRNA, RT-PCR) in IL1beta-treated normal human chondrocytes; settings: catabolic gene, % of IL1beta-treated cells (set at 100%), HT 1.925 mg/L, CS 500 mg/L, or both
Description: (§2) The effect of HT in combination with chondroitin was tested on the expression of human aggrecan or collagen I in normal human chondrocytes (derived from knee) (CC-2550; Cambrex, respectively). OH-tyrosol (HT) was from Cayman Chemicals or from DSM; chondroitin sulfate (from shark) was purchased from Sigma. A control experiment without the compounds was done concomitantly to compare the expression of these genes. Normal human chondrocytes were cultured for 4 hours or 4 days with HT (at 12.5 micromol/L), chondroitin (at 500 mg/L) as well as with both. The level of mRNA was determined by RT-PCR (Richard et al. Mol. Nutr. Food Res. 49, 431-442, 2005) and expressed relative to the level observed in cells cultured without the substances. The given values indicate the level of gene expression (in % of unstimulated cells [set at 100%] for anabolic and anti-catabolic genes; in % of IL1beta-treated cells [set at 100%], for catabolic genes). The combination of HT was used at 12.5 micromol/L (=1.925 mg/L), while the chondroitin sulfate (CS) was tested at 500 mg/L. The results shown in Table 1 indicate that a HT altered the expression of anabolic genes such as aggrecan or collagen. Similar effects were elicited by chondroitin. Yet, when combined the observed increase in gene expression exceeded the expected value reflecting a synergistic interaction.

human aggrecan = assay: Aggrecan gene expression (mRNA, RT-PCR) in normal human chondrocytes; settings: anabolic gene, % of unstimulated cells (set at 100%), CS 500 mg/L, or both; for Aggrecan (unstim., 4 hrs) level of gene expression: HT 1.925 mg/L (12.5 micromol/L); for Aggrecan (unstim. 4 d) level of gene expression: HT 1.925 mg/L
Text: as §2, with “In articular cartilage, the balance between anabolic (build-up) and catabolic (break down) events needs to be maintained in order to prevent hypertrophy and excessive degradation of extracellular matrix (ECM), respectively. The ECM is built up of collagen and proteoglycans that are the products of collagen genes, for example human collagen I or aggrecan genes which are actived during anabolic events. A substance which increases expression of these genes or the respective proteins (i.e. collagen and aggrecan) favors cartilage regeneration and/or build-up. The effect” for “The effect”

MMP-13 = MMP-13 gene expression (mRNA, RT-PCR) in IL1beta-treated normal human chondrocytes; settings: catabolic gene, % of IL1beta-treated cells (set at 100%), HT 1.925 mg/L, CS 500 mg/L, or both
Description: as §1

human collagen I = assay: Collagen I gene expression (mRNA, RT-PCR) in normal human chondrocytes; settings: anabolic gene, % of unstimulated cells (set at 100%), HT 1.925 mg/L, CS 500 mg/L, or both
Text: In articular cartilage, the balance between anabolic (build-up) and catabolic (break down) events needs to be maintained in order to prevent hypertrophy and excessive degradation of extracellular matrix (ECM), respectively. The ECM is built up of collagen and proteoglycans that are the products of collagen genes, for example human collagen I or aggrecan genes which are actived during anabolic events. A substance which increases expression of these genes or the respective proteins (i.e. collagen and aggrecan) favors cartilage regeneration and/or build-up. The effect of HT in combination with chondroitin was tested on the expression of human aggrecan or collagen I in normal human chondrocytes (derived from knee) (CC-2550; Cambrex, respectively). OH-tyrosol (HT) was from Cayman Chemicals or from DSM; chondroitin sulfate (from shark) was purchased from Sigma. A control experiment without the compounds was done concomitantly to compare the expression of these genes. Normal human chondrocytes were cultured for 4 hours or 4 days with HT (at 12.5 micromol/L), chondroitin (at 500 mg/L) as well as with both. The level of mRNA was determined by RT-PCR (Richard et al. Mol. Nutr. Food Res. 49, 431-442, 2005) and expressed relative to the level observed in cells cultured without the substances. […]

| Molecule | MMP-2 (stim., 4 hrs) level of gene expression (MMP-2) [%] | MMP-1 (stim., 4 d) level of gene expression (MMP-1) [%] | IL-1beta (stim., 4 hrs) level of gene expression (IL-1beta) [%] | Aggrecan (unstim., 4 hrs) level of gene expression (human aggrecan) [%] | Aggrecan (unstim. 4 d) level of gene expression (human aggrecan) [%] | MMP-13 (stim., 4 hrs) level of gene expression (MMP-13) [%] | Collagen 1 (unstim. 4 d) level of gene expression (human collagen I) [%] |
| --- | --- | --- | --- | --- | --- | --- | --- |
| chondroitin sulfate [CS] | 116 | 122 | 91 | 113 | 97 | 90 | 103 |
| OCCc1ccc(O)c(O)c1 [HT, 2-(3,4-dihydroxyphenyl)-ethanol] | 102 | 109 | 83 | 115 | 118 | 96 | 113 |
